Laboratory results as given in US7381744B1, “Method of treating osteoporosis comprising vacuolar-type (H+)-ATPase-inhibiting compounds” (The United States of America as represented by the …, priority 1999, dated 2008).

Experiments:
[1] = stability in solvents observed during isolation and NMR; type: physicochemical; conditions: deuterated chloroform
Description: Therefore, all subsequent attempts at isolation avoided the use of chloroform or exposure of samples to CDCl3, and no further problems with decomposition or loss of bioactivity were encountered. Moreover, there was no indication of any instability of the pure isolated compounds in any of the other common organic solvents employed, nor in aqueous or biological media.
Signals obscured by or unresolved in the first solvent were readily discernible in the second. Consequently, ^1H-^1H COSY, HMQC, and HMBC NMR data were gathered in both solvents. […] From a combination of the HMQC (Table 2) and the COSY spectral data, the partial structures illustrated in FIGS. 5A-5C were generated.

[2] = system: mammalian vacuolar-type (H+)-ATPase (from chromaffin granule membranes); assay: mammalian vacuolar-type (H+)-ATPase inhibition, side-by-side test; type: biochemical; conditions: chromaffin granule membranes; side-by-side test
Description: The inhibitory data were obtained using the same procedures and biological preparations described in Bowman et al., Proc. Natl. Acad. Sci. USA, 85, 7972-7976 (November 1988).

[3] = system: vacuolar-type (H+)-ATPase derived from macrophage cells (J774); assay: vacuolar-type (H+)-ATPase inhibition assay, membrane vesicles (J774); type: biochemical; conditions: bafilomycin-sensitive activity; oligomycin 5 μg/ml and vanadate 1 mM present; 37°, 30 minutes
Method: Inhibition of bafilomycin-sensitive vacuolar-type (H+)-ATPase activity was measured in partially purified membrane vesicle preparations from human osteoclastoma cells (hOc), human renal cortical cells (hK), and macrophage cells (J774). The vesicles were prepared by appropriate adaptations of methods described in Gagliardi et al., J. Med. Chem., 41, 1568-1573 (1998); and Gagliardi et al., J. Med. Chem., 41, 1883-1893 (1998).
Vacuolar-type (H+)-ATPase assays were performed in the presence of oligomycin (5 μg/ml) and vanadate (1 mM) as inhibitors of F- and P-ATPases, respectively. A […] method was used to quantitate the residual bafilomycin-sensitive vacuolar-type (H+)-ATPase activity (see Chan et al., Anal. Biochem., 157, 375-380 (1986)). The assay measures the release of inorganic phosphate from ATP at 37° during 30 minutes of incubation. The reaction is initiated by the addition of MgSO4 ([…]).

CCRF-CEM = assay: NCI 60 cell-line screen; type: cell-based; conditions: Homo sapiens, Leukemia, averaged, quadruplicate testing, read-out: negative log10 GI50 (converted)
Description: (§1) It is the concentration where 100×(T−To)/To=−50=PG. […] Res., 34, 91-109 (1995).

SK-MEL-5 = assay: NCI 60 cell-line screen; type: cell-based; conditions: Homo sapiens, Melanoma, averaged, quadruplicate testing, read-out: negative log10 GI50 (converted)
Description: as §1

MALME-3M = assay: NCI 60 cell-line screen; type: cell-based; conditions: Homo sapiens, Melanoma, averaged, quadruplicate testing, read-out: negative log10 GI50 (converted)
Description: as §1

KM12 = assay: NCI 60 cell-line screen; type: cell-based; conditions: Homo sapiens, Colon, averaged, quadruplicate testing, read-out: negative log10 GI50 (converted)
Description: as §1

NCI-H23 = assay: NCI 60 cell-line screen; type: cell-based; conditions: Homo sapiens, Lung, averaged, quadruplicate testing, read-out: negative log10 GI50 (converted)
Description: as §1

SK-OV-3 = assay: NCI 60 cell-line screen; type: cell-based; conditions: Homo sapiens, Ovary, averaged, quadruplicate testing, read-out: negative log10 GI50 (converted)
Description: as §1

SK-MEL-2 = assay: NCI 60 cell-line screen; type: cell-based; conditions: Homo sapiens, Melanoma, averaged, quadruplicate testing, read-out: negative log10 GI50 (converted)
Description: as §1

SF-295 = assay: NCI 60 cell-line screen; type: cell-based; conditions: Homo sapiens, Brain, averaged, quadruplicate testing, read-out: negative log10 GI50 (converted)
Description: as §1

NCI-H460 = assay: NCI 60 cell-line screen; type: cell-based; conditions: Homo sapiens, Lung, averaged, quadruplicate testing, read-out: negative log10 GI50 (converted)
Description: as §1

ACHN = assay: NCI 60 cell-line screen; type: cell-based; conditions: Homo sapiens, Kidney, averaged, quadruplicate testing, read-out: negative log10 GI50 (converted)
Description: as §1

HT29 = assay: NCI 60 cell-line screen; type: cell-based; conditions: Homo sapiens, HT-29, Colon, averaged, quadruplicate testing, read-out: negative log10 GI50 (converted)
Description: as §1

HL-60-TB = assay: NCI 60 cell-line screen; type: cell-based; conditions: Homo sapiens, HL-60, read-out: negative log10 GI50 (converted)
Description: as §1

COLO 205 = assay: NCI 60 cell-line screen; type: cell-based; conditions: Homo sapiens, Colon, averaged, quadruplicate testing, read-out: negative log10 GI50 (converted)
Description: as §1

OVCAR-5 = assay: NCI 60 cell-line screen; type: cell-based; conditions: Homo sapiens, Ovary, averaged, quadruplicate testing, read-out: negative log10 GI50 (converted)
Description: as §1

MCF-7-ADR-RES = assay: NCI 60 cell-line screen; type: cell-based; conditions: Homo sapiens, Breast, averaged, quadruplicate testing, read-out: negative log10 GI50 (converted)
Description: as §1

HCT-116 = assay: NCI 60 cell-line screen; type: cell-based; conditions: Homo sapiens, Colon, averaged, quadruplicate testing, read-out: negative log10 GI50 (converted)
Description: as §1

PC-3 = assay: NCI 60 cell-line screen; type: cell-based; conditions: Homo sapiens, Prostate, averaged, quadruplicate testing, read-out: negative log10 GI50 (converted)
Description: as §1

UACC-257 = assay: NCI 60 cell-line screen; type: cell-based; conditions: Homo sapiens, Melanoma, averaged, quadruplicate testing, read-out: negative log10 GI50 (converted)
Description: as §1

HS-578T = assay: NCI 60 cell-line screen; type: cell-based; conditions: Homo sapiens, Breast, averaged, quadruplicate testing, read-out: negative log10 GI50 (converted)
Description: as §1

TK-10 = assay: NCI 60 cell-line screen; type: cell-based; conditions: Homo sapiens, Kidney, averaged, quadruplicate testing, read-out: negative log10 GI50 (converted)
Description: as §1

HCC-2998 = assay: NCI 60 cell-line screen; type: cell-based; conditions: Homo sapiens, Colon, averaged, quadruplicate testing, read-out: negative log10 GI50 (converted)
Description: as §1

786-0 = assay: NCI 60 cell-line screen; type: cell-based; conditions: Homo sapiens, Kidney, averaged, quadruplicate testing, read-out: negative log10 GI50 (converted)
Description: as §1

SNB-19 = assay: NCI 60 cell-line screen; type: cell-based; conditions: Homo sapiens, Brain, averaged, quadruplicate testing, read-out: negative log10 GI50 (converted)
Description: as §1

CAKI-1 = assay: NCI 60 cell-line screen; type: cell-based; conditions: Homo sapiens, Kidney, averaged, quadruplicate testing, read-out: negative log10 GI50 (converted)
Description: as §1

T-47D = assay: NCI 60 cell-line screen; type: cell-based; conditions: Homo sapiens, T47D, Breast, averaged, quadruplicate testing, read-out: negative log10 GI50 (converted)
Description: as §1

NCI-H522 = assay: NCI 60 cell-line screen; type: cell-based; conditions: Homo sapiens, Lung, averaged, quadruplicate testing, read-out: negative log10 GI50 (converted)
Description: as §1

HOP-92 = assay: NCI 60 cell-line screen; type: cell-based; conditions: Homo sapiens, Lung, averaged, quadruplicate testing, read-out: negative log10 GI50 (converted)
Description: as §1

NCI-H226 = assay: NCI 60 cell-line screen; type: cell-based; conditions: Homo sapiens, Lung, averaged, quadruplicate testing, read-out: negative log10 GI50 (converted)
Description: as §1

SF-268 = assay: NCI 60 cell-line screen; type: cell-based; conditions: Homo sapiens, Brain, averaged, quadruplicate testing, read-out: negative log10 GI50 (converted)
Description: as §1

SMILES: CC/C=C\C=C/C(=O)N/C=C/CC1CC(O)C(C)C/C=C/Cc2cccc(O)c2C(=O)O1 (centres unmarked) [salicylihalamide A]
- stability in CDCl3 [1]: sensitivity of salicylihalamide A to CDCl3
- inhibitory activity against mammalian vacuolar-type (H+)-ATPase [2]: potent inhibitor
- IC50 [3]: 2.8 nM
- GI50 (CCRF-CEM): 12.9 nM
- GI50 (SK-MEL-5): 1 nM
- GI50 (MALME-3M): 24 nM
- GI50 (KM12): 5.01 nM
- GI50 (NCI-H23): 282 nM
- GI50 (SK-OV-3): 2880 nM
- GI50 (SK-MEL-2): 33.9 nM
- GI50 (SF-295): 1.1 nM
- GI50 (NCI-H460): 0.977 nM
- GI50 (ACHN): 9.77 nM
- GI50 (HT29): 2.88 nM
- GI50 (HL-60-TB): 0.912 nM
- GI50 (COLO 205): 8.51 nM
- GI50 (OVCAR-5): 7.76 nM
- GI50 (MCF-7-ADR-RES): 8.51 nM
- GI50 (HCT-116): 1.82 nM
- GI50 (PC-3): 30.9 nM
- GI50 (UACC-257): 3.39 nM
- GI50 (HS-578T): 1410 nM
- GI50 (TK-10): 1820 nM
- GI50 (HCC-2998): 182 nM
- GI50 (786-0): 12 nM
- GI50 (SNB-19): 339 nM
- GI50 (CAKI-1): 1.1 nM
- GI50 (T-47D): 4.57 nM
- GI50 (NCI-H522): 55 nM
- GI50 (HOP-92): 17 nM
- GI50 (NCI-H226): 1.58 nM
- GI50 (SF-268): 28.2 nM
